The structures appear in SMILES notation.

Assay [1] concerns bone resorption. The assay can be described thus: Schenk model, in vivo bone resorption inhibition. The settings on record: subcutaneous injection, daily for 7 days, tibia metaphyseal trabecular bone content. Also on record: species or system male Sprague Dawley rats. The procedure: The compounds are evaluated for in vivo bone resorption inhibition and mineralization inhibition in an animal model system known in the field of bone metabolism as the Schenk Model. The general principles of this model system are disclosed in Shinoda et al., Calcif.
Preweaning 17-day-old (30 gms) male Sprague Dawley rats (Charles River Breeding Laboratories) are shipped with their mothers and placed in plastic cages with their mothers upon arrival. At 19 days of age, pups receiving Rat Chow and water ad libitum are randomly allocated into treatment or control groups comprising seven animals per group. On day 1 and again on day 7 all animals are given an intraperitoneal ("IP") injection of Calcein (1% solution in 0.9% saline solution; dosed at 0.2 ml/100 g body weight). On day 4 all animals are given an IP injection of tetracycline hydrochloride (1% solution in 0.9% saline solution; dosed at 0.2 ml/100 g body weight). These compounds label actively mineralizing bone and cartilage.
All solutions are prepared for subcutaneous injection in 0.9% normal saline and adjusted to pH 7.4 using NaOH and/or HCl. Dose solution calculation is made by considering the mass of powder (based on molecular weight, hydration) of the active material in mg/kg (body weight) that corresponds to mgP/kg. Concentrations are based on dosing 0.2 ml/100 g body weight. […] Compounds showing activity at 0.1 mg P/kg/day are then tested at logarithmic decrements down to 0.001 mg P/kg/day. Adjustments in dosage based on changes in body weight are made on a daily basis.
On day 8 after the start of dosing, all animals are sacrificed by IP overdose of pentabarbitol. Tibias are dissected free and placed in 70% ethyl alcohol. […] The tibia is sectioned longitudinally through the metaphyseal area. Specimens are stained on one surface with silver nitrate and mounted on microscope slides for evaluation with a Quantimet Image Analyzer (Cambridge Instruments, Inc.) using both incandescent and ultraviolet illumination. Metaphyseal trabecular bone content is measured in the region between the fluorescent label and the growth plate: expressed as percent of total area (bone + marrow). Epiphyseal growth plate width is obtained as the mean value of 10 equally-spaced measurements across the section.
Statistical evaluation of data is made using parametric and non-parametric analysis of variance and Wilcoxons rank sum test to determine a statistically significant effect compared to control animals.
The Schenk model provides data for in vivo bone resorption inhibition by the compounds.

The subject of assay [2] is parathyroid hormone (PTH)-induced rise in serum total and ionized calcium levels. The assay can be described thus: Thyroparathyroidectomized (TPTX) rat model, in vivo bone resorption inhibition potency. Also on record: species or system male Wistar rats. The settings on record: subcutaneous injection, daily for 4 days, TPTX rats, PTH challenge; lowest dose that decreases the rise in serum calcium. As for the experimental part: The compounds are evaluated for in vivo bone resportion inhibition potency by an animal model system known as the thyroparathyroidectomized (TPTX) rat model. The general principles of this model system are disclosed in Russell et al., Calcif. Tissue Research, 6, 183-196 (1970), and in Muhlbauer and Fleisch, Mineral Electrolyte Metab., 5, 296-303 (1981), the disclosures of which are incorporated herein by reference. The basic biochemical concept of the TPTX system is inhibition of the parathyroid hormone (PTH)-induced rise in serum total and ionized calcium levels by the respective bone active polyphosphonates.
Low calcium and low phosphorous diets used are prepared by Teklad^R Test Diets (Harlan Industries, Madison, Wisconsin 53711) in a pellet form of approximately 0.18% calcium and 0.22% phosphorous. The diets contain all the essential vitamins and minerals required for the rat, with the exception of calcium and phosphorous. The calcium and phosphorous levels of the pellets are verified analytically.
PTH is acquired as a powdered bovine extract (Sigma Chemical Co., P. O. Box 14508, St. Louis, Missouri, order #P-4410). PTH is prepared in 0.9% saline such that the final concentration is 100 µg PTH/ml, or approximately 200 U.S.P. units/ml. All solutions are filtered through a #4 Whatman Filter Paper and refiltered through a 0.45 µm Metricel ^R filter.
All solutions of compounds to be tested for bone resorption inhibition potency are prepared for subcutaneous injection in 0.9% normal saline and adjusted to pH 7.4 using NaOH and/or HCl. Dose solution calculation is made by considering the mass of powder (based on molecular weight, hydration) of the active material in mg/kg (body weight) that corresponds to mg P/kg. Concentrations are based on dosing 0.2 ml/100 grams of body weight. Typically, all compounds are administered at 0.01, 0.1, and 1.0 mg P/kg/day for 4 days in order to determine the lowest effective dose ("LED"). Where necessary the test is repeated, whereby the animals are administered with 0.5 LED in order to refine the determination of LED. Adjustments in dosage based on changes in body weight are made on a daily basis.
In this study 50 male Wistar rats weighing approximately 150-160 grams are thyroparathyroidectomized surgically by the breeder (Charles River Breeding Laboratories). All rats are double housed on arrival in suspended cages with Purina Laboratory Rodent Chow^R and tap water ad libitum. After acclimation to the laboratory environment for 3-5 days, the rats are placed on a low calcium, low phosphorous (.18%/.22%) diet (Teklad^R) and given 2% (W/V) calcium gluconate supplemented deionized water via water bottles.
On day three of low calcium diet, all rats are weighed. On day four, all rats are anesthetized with Ketaset^R (Ketamine Hydrochloride, 100 mg/ml, Bristol Myers), 0.10 ml/rat, and then bled from the retro-orbital venous plexus for serum total calcium analysis using Flame Atomic Absorption (FAA) or Nova 7+7 Automated Calcium Analyzer. All rats weighing less than 150 grams are eliminated from the study. Animals are then randomized statistically such that the mean total serum calcium for each group is the same. Only rats deemed hypocalcemic (total serum calcium ≦8.0 mg/dl) are placed in study groups comprising six animals per group.
Treatments with the various experimental compounds commence on day 6 and last through day 9 of the study. Dose solutions are prepared to be given at a constant rate of 0.2 ml/100 grams of body weight subcutaneously in the vental skin flap where the hind leg meets the torso. All rats are weighed and dosed daily. A 25 gauge 5/8" needle is used to administer drug, alternating right and left dose sites daily. On day 8, animals are changed to deionized, distilled water via water bottles. On day 9 all rats are fasted in the afternoon at approximately 4:0 P.M. On day 10 of study no treatment is given. […]

The test system of assay [3] is bone resorption. The assay can be described thus: Capsules given orally to a patient afflicted with osteoporosis (Example 6). The assay is classed as in vivo. The settings on record: 25 mg P per capsule, orally twice daily for 6 months, patient of approximately 70 kilograms. As for the experimental part:
Capsules are prepared by conventional methods, comprised as follows: […]

Assay [4] concerns hypercalcemia of malignancy. The assay can be described thus: Injectable solution in patients with hypercalcemia of malignancy (Example 8). It is filed as in vivo. The note with it: 0.07 mg P in 1.0 ml saline, pH 7.4, one injection daily for 4 days, patients of approximately 70 kilograms. The procedure:
Injectable solutions are prepared by conventional methods using 1.0 ml of physiological saline solution and 0.07 mg P of N-(2'-(3'-methyl)-piperidinylidene)-amino-methane diphosphonic acid, adjusted to pH = 7.4.

Assay [5] deals with bone resorption. The assay can be described thus: Tablets given orally to a patient afflicted with Paget's disease (Example 7). It is filed as in vivo. The note with it: 25 mg P per tablet, orally twice daily for 6 months, patient of approximately 70 kilograms. The procedure:
Tablets are prepared by conventional methods, formulated as follows: […]

For the next assay, the system named is hamsters' incisors. The settings on record: parenteral administration to hamsters; Landeck and Binus 1980; cited from earlier work.
A further assay deals with skeleton. The note with it: Technetium-99m labelled, bone scintigraphy; Unterspann 1976; cited from earlier work.

For `O=P(O)(O)C(CC1CCCCN1)P(=O)(O)O` (stereo not shown) [2-(2'-piperidinyl)-EDP, 2-(2'-piperidinyl)-ethane-1,1-diphosphonic acid], the “Lowest Effective (Antiresorptive) Dose - Schenk; Schenk LED” value (shortened to “Lowest Effective … Schenk LED”) with bone resorption [1] is on record as 0.01 mg/P/kg. In addition, in assay [2], the “Lowest Effective (Antiresorptive) Dose-TPTX” value came out at 0.01 mg P/kg. For the same compound, the “bone resorption in a patient afflicted with osteoporosis” value in the assay with bone resorption [3] was “substantially reduce bone resorption”.
For the compound `O=P(O)(O)C(Cl)(Cl)P(=O)(O)O` [Cl₂MDP, dichloromethane DP], the “Lowest Effective … Schenk LED” value in the assay on bone resorption [1] was found to be 1.0 mg/P/kg. For the same compound, the “Lowest Effective (Antiresorptive) Dose-TPTX” value in assay [2] worked out at 1.0 mg P/kg.
On the same counts, the results for `NCCC(O)(P(=O)(O)O)P(=O)(O)O` [APD, 3-amino propane-1-hydroxy-1,1-DP] are 0.1 mg/P/kg and 0.1 mg P/kg.
Take `O=P(O)(O)C(NC1=NCCCN1)P(=O)(O)O` [N-(2'-(1',3'-diazinylidene))AMDP, N-(2'-(1',3'-diazinylidene))-aminomethane diphosphonic acid]: in assay [2], the “Lowest Effective (Antiresorptive) Dose-TPTX” value is given as 0.001 mg P/kg.
Regarding `CC1CCCN=C1NC(P(=O)(O)O)P(=O)(O)O` (stereo not shown) [N-(2'-(3'-methyl)piperidinylidene)AMDP, N-(2'-(3'-methyl)-piperidinylidene)-amino-methane diphosphonic acid], in the assay with bone resorption [1], the “Lowest Effective … Schenk LED” value worked out at 0.001 mg/P/kg. For the same compound, in assay [2], the “Lowest Effective (Antiresorptive) Dose-TPTX” value is recorded as 0.001 mg P/kg. Moreover, in assay [4], the “alleviation of hypercalcemia of malignancy” value is “appreciable alleviation of hypercalcemia of malignancy”.
Turning to `O=P(O)(O)C(O)(CC1CCCCN1)P(=O)(O)O` (stereo not shown) [2-(2'-piperidinyl)-1-hydroxy-ethane-1,1-diphosphonic acid], in the assay with bone resorption [5], the “bone resorption in a patient afflicted with Paget's disease” value is “substantially reduce bone resorption”.
Consider `CC(O)(P(=O)(O)O)P(=O)(O)O` [EHDP, ethane-1-hydroxy-1,1-diphosphonic acid], for which the “Lowest Effective … Schenk LED” value with bone resorption [1] is given as 1.0 mg/P/kg. For the same compound, in assay [2], the “Lowest Effective (Antiresorptive) Dose-TPTX” value was 1.0 mg P/kg.
`O=P(O)(O)C(N1CCCCC1)P(=O)(O)O` [N-piperidinyl-methane-diphosphonic acid]: the “effect on the mineralization of the incisors” value in the assay with hamsters' incisors is reported as “Little or no effect on the mineralization of the incisors”. The “skeleton activity compared with EHDP” value in the assay with skeleton is reported as “less skeleton activity than EHDP”.
